Assay results as given in patent US10314894B2, “Treatment of cardio-renal disease using PCSK6” (THE CLEVELAND CLINIC FOUNDATION, priority 2014, dated 2019).
Peptide text beside a SMILES is read from it.

System: corin activation cleavage
Assay: Protease inhibitors on corin activation cleavage in HEK293 cells expressing corin (Western blotting)
Type: cell-based, human
Details: 24 h, transfected HEK293 cells
Description: HEK293 cells were cultured in DMEM with 10% fetal bovine serum (FBS). HL-1 cardiomyocytes were cultured in Claycomb medium with 10% FBS, and 4 mM L-glutamine. All cells were cultured at 37° C. in humidified incubators with 5% CO2.
HEK293 and HL-1 cells were transfected with corin or PCSK6 expression plasmids. After 48-72 h, cells were lysed in a buffer containing 25 mM Tris-HCl, pH 7.4, 150 mM NaCl, 1 mM EDTA, 1% (v/v) NP-40, and 1% (v/v) protease inhibitor cocktail. Recombinant corin and PCSK6 proteins were immunoprecipitated with an anti-V5 or anti-flag antibody. Western blotting was carried out to analyze corin expression and activation or PCSK6 expression with or without reducing agents. Percentage of corin activation (corin-p vs. corin fragments) was quantified by densitometric analysis of Western blots.
To identify the corin activator, corin activation cleavage was examined in HEK293 and HL-1 cells expressing corin in the presence of protease inhibitors including benzamidine (5 mM), GM6001 (50 μM), dec-RVKR-cmk (20 μM), or ALLM (N-acetyl-leucyl-leucyl-methionine 50 μM). Liao et al., J Biol Chem 282, 27728-27735 (2007). The inhibitors were added to the cells in separate wells. After 24 h, cell lysates were prepared and corin protein was analyzed by Western blotting.

| Compound | corin activation (~40-kDa band reduced, ~190-kDa zymogen band increased) (benzamidine 5 mM) | corin activation (~40-kDa band reduced, ~190-kDa zymogen band increased) (dec-RVKR-cmk 20 μM) | corin activation (~40-kDa band reduced, ~190-kDa zymogen band increased) (dec-RVKR-cmk 20 μM, listed as RVKR-cmk) |
| --- | --- | --- | --- |
| N=C(N)c1ccccc1 [benzamidine] | corin activation cleavage was inhibited |  |  |
| CCCCCCCCCC(=O)N[C@@H](CCCN=C(N)N)C(=O)N[C@H](C(=O)N[C@@H](CCCCN)C(=O)N[C@@H](CCCN=C(N)N)C(=O)CCl)C(C)C [dec-RVKR-cmk] (HELM PEPTIDE1{[CCCCCCCCCC(=O)[*:2]].R.V.K.R.[ClC[*:1]]}$$$$V2.0) |  | corin activation was inhibited | corin activation cleavage was inhibited |
